Measured values from patent publication US7569354B2, “Cellomics system” (OnChip Cellomics Consortium, priority 2004, dated 2009).

Columns and labels:
[1] = tested on: blood from a patient suffering from leukemia; experiment: separation of cells causing leukemia by intake of labeled amino acids; type: cell-based, human
Method: Descriptions are provided below for a case in which cells causing leukemia are separated by applying the technique in Example 3 for cell separation. NDB folic acid (Ex465/Em540), 4,4-difluoro-1,3,5,7-tetramethyl-4-bora-3a,4a-diaza-s-indacene-8-propionate labeled ASn, and 4,4-difluoro-5-(2-pyrrole)-4-bora-3a,4a-diaza-s-indacene-3-propionate labeled Thr are added to blood from a patient suffering from leukemia, and the mixture is incubated for 30 minutes at 37° C. Using the NDB folic acid (Ex465/Em540) as a control, the amounts of intaked 4,4-difluoro-3,5,7-tetramethyl-4-bora-3a,4a-diaza-s-indacene-8-propionate labeled ASn (Ex493/Em503) and intaked 4,4-difluoro-5-(2-pyrrole)-4-bora-3a,4a-diaza-s-indacene-3-propionate labeled Thr are measured by detecting the fluorescent intensities of various derivatives of 4,4-difluoro-4-bora-3a,4a-diaza-s-indacene against the fluorescence intensity generated by NDB-labeled folic acid, and cells having high fluorescence intensity with the fluorescence wavelength of around 503 nm, namely cells having a large intake amount of the 4,4-difluoro-1,3,5,7-tetramethyl-4-bora-3a,4a-diaza-s-indacene-8-propionate labeled ASn are sorted with a cell sorter.

[2] = tested on: cells from brain tissue pieces; experiment: cell separation by cell permeability of NBD-labeled sugars, brain-derived cells; type: cell-based; conditions: 15 minutes at 37° C., 200 cells processed
Excerpt: In Example 2 for cell separation, a case is described in which differences of cells are recognized by measuring differences in cell permeability of a plurality of substrates and then discrete cells are separated. In this example, cells are identified and separated by observing the cell permeability of galactose or fructose against the glucose described in the aforementioned document. Generally, glucose is often used as an energy source for cells, but galactose or fructose is not directly consumed. For instance, when Escherichia coli is cultured in a mixed culture medium of glucose and fructose, glucose is consumed at first, and then […] is consumed when glucose decreases. Therefore, for instance, by measuring cell permeability of various types of substrates using a quantity of intaked glucose as control data, cell separation reflecting the state of cell more accurately can be performed.
In this example, a glucose labeling derivative of 6-(N-(7-nitrobenz-2-oxa-1.3-diazol-4-yl)amino) sugar (Ex465/Em540) (NBD-labeled sugar) is used. […] The culture fluid is exchanged with that not containing the NBD-labeled sugar, and the sample is immediately added to a cell sorter independently developed by the inventors, and cells with the relative fluorescence intensity of 500 or more are separated.

[3] = tested on: cells from a lever tissue; experiment: cell separation by cell permeability of NBD-labeled sugars, lever tissue cells; type: cell-based
[4] = tested on: neurocyte / pulsating myocardial cell; conditions: added to culture fluid of the neurocyte side only
Method: In Example 3, examination is made for whether a beat cycle of the pulsating myocardial cell 2-1 kept in the cell holding zone 2 changes when potassium or glucose, or suspected endocrine disrupter is added to the culture fluid of the neurocyte 3-2 in the cell holding zone 3, or the content is increased.
At first, the same culture fluid is filled in the culture fluid baths 21-1, 21-2, and a beat cycle of the pulsating myocardial cell 2-1 is checked to obtain a myocardial pulsation pattern showing the substantially same cycle as shown in FIG. 49(A).

4,4-difluoro-1,3,5,7-tetramethyl-4-bora-3a,4a-diaza-s-indacene-8-propionate labeled ASn
cancerous leukocytes among the sorted cells with large intake, histological examination ([1]; 30 minutes at 37° C., fluorescence around 503 nm, NDB folic acid as control): ≥ 95%

4,4-difluoro-5-(2-pyrrole)-4-bora-3a,4a-diaza-s-indacene-3-propionate labeled Thr
intake rate in normal cells against cancer cells ([1]; compared to labeled Asn): not so remarkable

O=[N+]([O-])c1ccc(NCC2OC(O)C(O)C(O)[C@@H]2O)c2nonc12 (some centres unmarked) [NBD-labeled glucose]
cells obtained with the relative fluorescence intensity of 500 or more [2]: 66 cells
cells obtained with the relative fluorescence intensity of 500 or more [3]: 46 cells

NCCc1ccc(O)c(O)c1 [dopamine, 2-dihydroxyphenylethylamine]
beat cycle of the pulsating myocardial cell [4]: disturbance in the beat cycle
